Test results reported in patent US20220125853A1, “MATERIALS AND METHODS FOR ENHANCING BONE CELL DIFFERENTIATION” (Mayo Foundation for Medical Education and Research, priority 2016, published 2022).

Legend:
[1] = tested on: Enhancer of Zeste Homolog 2 (EZH2); assay: EZH2 protein levels and H3K27me3 marks in AMSCs; assay type: cell-based, human
Source text: (§1) The effect of CytoD on adipose tissue-derived MSCs (AMSCs) was investigated. AMSCs offer several advantages over other sources of MSCs, particularly in the ease of tissue harvest, isolation and expansion to generate sufficient cell numbers for therapy. Because AMSCs have limited osteogenic potential, it is necessary to design molecular strategies to improve their ability to attain a mature osteoblastic phenotype. […] Furthermore, CytoD decreased protein levels of Enhancer of Zeste Homolog 2 (EZH2), an epigenetic suppressor of osteogenic differentiation that mediates heterochromatinization of bone-related genes by trimethylation of histone 3 lysine 27 (H3K27me3).

AMSCs = assay: RNA-seq analysis of AMSCs in response to CytoD; assay type: cell-based, human; details: 24 hour
Source text: as §1

BMSCs = assay: RNA-seq analysis of BMSCs in response to CytoD; assay type: cell-based; details: 24 hour
[2] = tested on: adipose tissue-derived MSCs (AMSCs); assay: Osteogenic differentiation of AMSCs (alkaline phosphatase activity, mineralization, osteogenic polypeptide expression); assay type: cell-based, human; details: throughout the cell culture time-course
Source text: as §1

[3] = tested on: estrogen-depleted (ovariectomized) mice; assay: Osteo-protective effect of EZH2 inactivation in estrogen-depleted (ovariectomized) mice; assay type: in vivo
Source text: (§2) Bone stimulatory therapeutics that promote bone formation include bone morphogenetic proteins (e.g., BMP2) and intermittent treatment with parathyroid hormone (PTH) or PTH related protein, as well as antibody-suppression of WNT inhibitors (e.g., SOST). Furthermore, inactivation of EZH2, an epigenetic regulator with histone 3 lysine 27 (H3K27) methyltransferase activity, using a pharmacological inhibitor (GSK126) is bone anabolic in skeletally mature mice and osteo-protective in estrogen-depleted (ovariectomized) mice. These biological effects are directly related to the ability of EZH2 inhibition to promote osteogenic differentiation and inhibit adipogenic differentiation of mesenchymal stem cells.

skeletally mature mice = assay: Bone anabolic effect of EZH2 inactivation in skeletally mature mice; assay type: in vivo
Source text: as §2

MC3T3 cells = assay: mRNAseq gene expression in differentiating MC3T3 cells / preosteoblasts; assay type: cell-based
Description: The molecular mechanisms by which EZH2 inhibition promotes osteogenic differentiation were assessed. […] This quiescent state is conducive for expression of bone-related extracellular matrix proteins (e.g., collagens) that support matrix mineralization. […] Several Wnt ligands (e.g., Wnt10b, Wnt10a, and Wnt6) are robustly expressed in differentiating MC3T3 cells.

| SMILES | levels of H3K27me3 marks [1] | protein levels of EZH2 [1] | program of other osteogenic markers, including those linked to the BMP2-RUNX2 axis (e.g., SP7) (AMSCs) | program of other osteogenic markers, including those linked to the BMP2-RUNX2 axis (e.g., SP7) (BMSCs) | alkaline phosphatase activity [2] | expression of osteogenic polypeptides RUNX2, ALP, OPG and TGFβ3 [2] | mineralization [2] | effect on bone [3] | effect on bone (skeletally mature mice) | expression of pro-osteogenic Wnt10b (MC3T3 cells; differentiating MC3T3 cells, EZH2 inhibition) | expression of the PTH receptor (Pthr1h) (MC3T3 cells; preosteoblasts) |
| --- | --- | --- | --- | --- | --- | --- | --- | --- | --- | --- | --- |
| C=C1[C@@H](C)[C@H]2[C@H](Cc3ccccc3)NC(=O)[C@]23[C@H](OC(C)=O)/C=C/[C@@](C)(O)C(=O)[C@@H](C)C/C=C/[C@H]3[C@@H]1O [CytoD, cytochalasin D] | decreased levels | decreased | significant upregulation | significant upregulation | significant increases | significant increases | significant increases | – | – | – | – |
| CC[C@H](C)n1cc(C)c2c(C(=O)NCc3c(C)cc(C)[nH]c3=O)cc(-c3ccc(N4CCNCC4)nc3)cc21 [GSK126] | – | – | – | – | – | – | – | osteo-protective | bone anabolic | greatly up-regulated | enhanced |
